Where “and” joins values, the source holds several entries; their conditions need not be identical. Equal entries are not always repeated. Entries after “also recorded” stand apart in the source; their conditions may differ. Where two headings read alike, the source gives them in different places.
Assays:
DUSP5 PD(C263S) = tested on: T1, DUSP5 PD(C263S); experiment: NMR binding assay (2D 1H-15N HSQC); design: species or system human; settings: 250 μM RR505 or 500 μM CSD^3_2320, pH 6.8
T1 construct: a C-terminal phosphatase domain (PD); hexa-histidine (N); made in house; host or cells: E. coli BL21(DE3)
Protocol: NMR samples of DUSP5 PD(C263S) were prepared for 2D ^1H-^15N HSQC (heteronuclear single quantum coherence) spectral titration studies. The ^15 N-labeled DUSP5 PD(C263S) protein was concentrated using an Amicon Ultra-4 centrifugal device (Millipore) to 600 μM. NMR samples were prepared with the following conditions for RR505: 250 μM RR505, 250 μM DUSP5 PD(C263S), 10 % D2O, 50 mM potassium phosphate, 100 mM KCl, and 2 mM DTT at pH 6.8 and for CSD^3-2320: 0 or 500 μM CSD^3-2320, 500 μM DUSP5 PD(C263S), 10 % D2O, 50 mM potassium phosphate, 100 mM KCl, and 2 mM DTT at pH 6.8. NMR experiments were performed on a 500 MHz Varian NMR System using a triple resonance probe with z-axis gradients at 25 °C.

panel of 21 phosphatases = experiment: Screen against a panel of 21 phosphatases; type: biochemical; settings: at up to 30 μM
[1] = Nephelometry (aggregation in solution); type: physicochemical; settings: 10-100 μM, pH 7.5 buffer; for aggregation: nephelometry
Protocol: Nephelometry is a technique for measuring the relative aggregation of particles in solution, based on the light-scattering properties of molecular aggregates. We performed nephelometry to explore the ability of the chemicals studied herein to form aggregates, which can lead to artifactual inhibition effects. Compounds were tested for aggregation in 96-well plates using a buffer containing 100 mM Tris base, 100 mM sodium chloride, and 5 mM magnesium chloride at pH 7.5. Each compound analyzed in these experiments contained concentrations of compound ranging from 10-100 μM, recorded in quadruplet. Each plate was analyzed at two separate gain values of 52 and 72. Data were collected using a BMG NEPHELOstar Plus, equipped with a 635 nm laser.

full length DUSP5 = molecular target: T2, full length DUSP5 (Homo sapiens, UniProt Q16690); experiment: ERK dephosphorylation assay (full-length DUSP5, pERK2 substrate, Western blot); type: biochemical; settings: full length DUSP5, pERK2 as substrate
T2 construct: in the more biologically relevant assay with full length DUSP5 and using pERK2 as substrate; made in house
T2 sequence (Q16690 1-384): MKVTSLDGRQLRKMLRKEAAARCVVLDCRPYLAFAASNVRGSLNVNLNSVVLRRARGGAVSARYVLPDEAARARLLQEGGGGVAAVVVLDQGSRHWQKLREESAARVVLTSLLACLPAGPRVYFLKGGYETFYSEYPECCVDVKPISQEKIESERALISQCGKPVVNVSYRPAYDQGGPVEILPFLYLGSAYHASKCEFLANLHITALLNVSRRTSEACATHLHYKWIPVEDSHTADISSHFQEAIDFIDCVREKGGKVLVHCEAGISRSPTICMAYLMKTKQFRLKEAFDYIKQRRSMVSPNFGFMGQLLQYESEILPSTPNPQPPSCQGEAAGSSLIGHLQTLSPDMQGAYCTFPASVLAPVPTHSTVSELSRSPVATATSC
Protocol: For this assay, 10 ng of GST-tagged recombinant phosphorylated ERK2 (R&D Systems, 1230-KS) was incubated with and without the indicated DUSP5 proteins (0.5 nM final concentration) for 15 min at room temperature, with or without the indicated drugs. The reactions were halted with 2x Laemmli sample buffer and subjected to SDS-PAGE. The proteins were transferred to polyvinylidene difluoride (PVDF) and immunoblotted using antibodies to pERK (Cell Signaling Tech., #9106) and total ERK, which includes both phosphorylated and unphosphorylated ERK1 and ERK2 (Cell Signaling Tech., #9102). Bound antibodies were visualized using horseradish peroxidase-linked anti-mouse IgG (Cell Signaling Tech, #7076S) and anti-rabbit IgG (Cell Signaling Tech, #7074S), respectively, and ECL reagents (Pierce, #34708) according to the manufacturer’s protocol. For calculating IC50 values, gel bands were imaged by chemiluminescence with either film or digital image capture by a FluorChem HD2 imager (Alpha Innotech). Density of each band was quantified with ImageJ software by using the gel analysis tool. Relative values of phosphorylated ERK present for each drug concentration treatment compared to pERK only controls were calculated. These relative values were then used to obtain IC50 values with GraphPad Prism 6 software. […]

DUSP5 PD(WT) [2] = molecular target: T3, DUSP5 PD(WT) (Homo sapiens, UniProt Q16690); experiment: p-nitrophenol phosphate (pNPP) phosphatase activity / IC50 assay; type: biochemical; settings: for effect of detergent on inhibition: presence vs absence of 0.5 % Triton X-100
T3 construct: hexa-histidine (N); made in house; host or cells: E. coli BL21(DE3)
T3 sequence (Q16690 178-319 limits assumed): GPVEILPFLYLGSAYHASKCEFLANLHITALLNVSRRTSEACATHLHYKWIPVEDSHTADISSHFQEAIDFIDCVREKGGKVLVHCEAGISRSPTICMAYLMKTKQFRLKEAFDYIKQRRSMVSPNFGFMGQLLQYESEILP
From the text: To measure enzymatic activity of the DUSP5 PD and the inhibitory capacity of selected molecules, an in vitro phosphatase assay was developed based on previous studies. In this assay, DUSP5 PD will dephosphorylate the substrate p-nitrophenol phosphate (pNPP, Sigma Aldrich), yielding p-nitrophenolate, which absorbs at 405 nm with an extinction coefficient of 18,000 M^−1 cm^−1.
Thus, an increase in absorbance at 405 nm corresponds to the turnover of pNPP to p-nitrophenolate. The assay was initially optimized in 1 mL quartz cuvettes, then was subsequently optimized for and validated in a 96-well plate format. All IC50 values were obtained using the 96-well plate assay format (see below). The assay buffer contained 100 mM Tris, 100 mM sodium chloride, 5 mM magnesium chloride, and 1 mM DTT at pH 7.5. The pNPP substrate was prepared as a 50 mM stock by dissolving the solid substrate in assay buffer. The DUSP5 PD and pNPP were assayed initially in a cuvette (1 mL total volume) and initial velocities were fitted to the Michaelis-Menten equation:1 v=VmaxS/Km+S where v is the initial velocity, Vmax is the maximum velocity, Km is the Michaelis constant, and [S] is the concentration of pNPP. Data were fitted using a nonlinear least squares fit to eq. 1, with GraphPad Prism 6 software.
For the 96-well plate validation assay, sodium orthovanadate (Sigma Aldrich) was utilized as a positive control for inhibition at a final concentration of 10 μM, to completely block DUSP5(WT) enzymatic activity. All plate assays were performed in standard 96-well clear bottom plates (Thermo Scientific Nunc) with a total assay volume of 200 μL, using a SpectraMax M5 Microplate Reader (Molecular Devices). The plate validation assay was performed with replicate columns of positive control wells, negative control wells and blank wells. Blank columns contained only buffer and pNPP. Negative control (uninhibited) contained buffer, pNPP, and DUSP5 PD(WT); and, positive control contained the same components, but also contained 10 μM sodium orthovanadate. The plate was then shaken and allowed to equilibrate in the spectrophotometer at 25 °C for 30 min. After incubation, 4 μL of a 50 μM enzyme stock was dispensed into appropriate wells utilizing a single-channel pipette. This produced a final enzyme concentration of 1 μM. Before a read was taken, the plate was shaken for five seconds. […] The endpoint reading was subsequently taken at 90 min after initiation of reaction.
IC50 values were obtained using the assay described above, in 96 well plates. The maximum inhibitor concentration screened in any plate was […] and the minimum screened concentration was 1 μM. The IC50 plate was designed so that the first column of wells served as blanks, with wells containing only buffer and substrate. The second column of wells functioned as the plate negative control, with each well containing buffer, substrate and enzyme. The remaining wells in the plate contained buffer, substrate, enzyme, and varying amounts of inhibitor, with inhibitor concentration increasing from left to right across the plate. Data points were collected at a minimum in triplicate, and inhibitor concentrations were chosen to provide data equally spread on a logarithmic scale. The composition of buffer and the concentrations of substrate and enzyme utilized were identical to those in the plate validation assay. After initiation and shaking, a ten-minute kinetic read was taken.
For each plate assayed, the slope values for all negative control wells were averaged and the measured value considered representative of full enzymatic activity.

DUSP5 PD(WT) [3] = molecular target: T3, DUSP5 PD(WT); experiment: as above; type: biochemical; settings: 1 mL cuvettes, pNPP substrate
[4] = pNPP as substrate, Michaelis-Menten fit, 1 mL cuvette

O=S(=O)(O)c1cc(O)c2c(S(=O)(=O)O)cccc2c1 [CSD^3_2320]
binding by HSQC cross-peak shifts (DUSP5 PD(C263S)): direct binding
binding by HSQC cross-peak shifts (DUSP5 PD(C263S); listed as CSD3_2320): binding
inhibition of panel phosphatases (panel of 21 phosphatases): not inhibit any of them significantly
aggregation [1]: does not aggregate; also recorded: no propensity to aggregate; also recorded: no tendency to aggregate
aggregation ([1]; listed as CSD3_2320): no tendency
IC50 (full length DUSP5; read-out: IC50 (mean)): 33 µM
IC50 (full length DUSP5; read-out: IC50 (range)): 8 to 96 µM
IC50 (DUSP5 PD(WT) [2]; phosphatase domain alone, pNPP as substrate, read-out: IC50): 32.7 mM and 33 mM

O=S(=O)(O)c1ccc2c(S(=O)(=O)O)cc(S(=O)(=O)O)cc2c1 [NTS, Naphthalene trisulfonate]
aggregation [1]: do not appear to form aggregates
effect of detergent on inhibition (DUSP5 PD(WT) [2]): no detergent-effect

O=S(=O)([O-])c1cc(S(=O)(=O)[O-])c2[nH]c3c(S(=O)(=O)[O-])cc(S(=O)(=O)[O-])cc3c2c1.[Na+].[Na+].[Na+].[Na+] [RR506, Carbazole-1,3,6,8-tetrasulfonic acid, tetrasodium salt]
aggregation [1]: do not appear to form aggregates
IC50 (DUSP5 PD(WT) [2]; pNPP substrate, 96-well plate, Triton X-100 at 0.1 %, read-out: IC50 from enzyme assay): 16 ± 2 mM

Cc1ccc(C(=O)Nc2ccc(S(=O)(=O)O)c3cc(S(=O)(=O)O)cc(S(=O)(=O)O)c23)cc1NC(=O)c1cccc(NC(=O)Nc2cccc(C(=O)Nc3cc(C(=O)Nc4ccc(S(=O)(=O)O)c5cc(S(=O)(=O)O)cc(S(=O)(=O)O)c45)ccc3C)c2)c1 [Suramin]
concentration at which aggregates start forming [1]: around 25 μM
aggregation [1]: forms aggregates in vitro
inhibition at 1 µM (DUSP5 PD(WT) [2]; 1 μM suramin, 5 mM pNPP, read-out: plateau level of inhibition with increasing Triton X-100): 30%
Ki (DUSP5 PD(WT) [2]; competitive versus pNPP, absence of Triton X-100): 24.6 µM and 25 µM
effect of detergent on inhibition (DUSP5 PD(WT) [2]): loss and loss of some inhibitory capability
effect of detergent on inhibition (DUSP5 PD(WT) [2]; listed as suramin): detergent decreases suramin inhibition
mode of inhibition (DUSP5 PD(WT) [2]; varied pNPP and inhibitor): competitive inhibitor; also recorded: competitive inhibition

O=[N+]([O-])c1ccc(OP(=O)(O)O)cc1 [pNPP, p-nitrophenol phosphate]
Km (DUSP5 PD(WT) [2]; [4]): 7.6 ± 0.4 mM
Vmax (DUSP5 PD(WT) [2]; [4]): 1.35 ± 0.02 × 10^−3 μmol/min

[Na+].[Na+].[Na+].[O]=[V]([O-])([O-])[O-] [sodium orthovanadate]
IC50 (DUSP5 PD(WT) [3]): 88 ± 8 nM

Source: publication PMC4545774, “Identification of inhibitors that target dual-specificity phosphatase 5 provide new insights into the binding requirements for the two phosphate pockets” (BMC Biochemistry, 2015)
